# From US6979747B2, “Antioxidants, preparation processes and their uses” (Centre National de la Recherche Scientifique (CNRS), priority 1999, dated 2005)
# Tests used:
# [1] = test system: HIV provirus; assay: Quantification of proviral DNAs by PCR (integration of the provirus within the cell genome); type: cell-based; settings: 10 μM
# Description: I-152 is composed of MEA and NAC, which are capable of interacting with the early phases of the biological cycle of HIV. It is therefore capable of decreasing the integration of the provirus into the cell genome. In order to measure these effects, the proviral DNAs were quantified by PCR. The cells were lysed using 1 ml of the following lysis solution: 10 mM Tris HCl pH 8; 100 mM of EDTA pH 8; 0.5% of sodium dodecyl sulfate (SDS); 20 μg/ml of DNAse-free bovine pancreatic RNAse. 200 μg/ml of proteinase K are subsequently added to this suspension. The DNAs were subsequently extracted using 1 ml of an ice-cold saturated phenol solution and 1 ml of a […] solution.
# The viral DNAs were then amplified by means of specific primers of the gag gene (SK01/SK39) and of a standard range of the 8E5 line, a chronically infected line, the cells of which carry a proviral copy. The β-globin gene was used as reporter gene in order to make sure of the quality of the DNA extraction.
# [2] = test system: MDMs; assay: Cytotoxicity with respect to MDMs (neutral red); type: cell-based, human
# Description: These tests are carried out systematically in parallel with the evaluation of the antiviral activity. In view of the oxidation/reduction capacity of the molecules tested, the test with the tetrazolium salt, which measures the activity of mitochondrial dehydrogenases, cannot be used.
# Neutral red (NR) is a vital dye which makes it possible to measure the viability of adherent cells, such as MDMs. 600 μl of culture supernatant are removed and replaced with 400 μl of an NR solution (0.001% m/v in phosphate buffer, PBS, Boehringer Mannheim), filtered at 0.45 μm. The cells were incubated for 1 h at 37° C. and are subsequently washed (2×1 ml of PBS). The cells are then lysed at −20° C. with 200 μl of a 50% ethanol mixture comprising 1% of glacial acetic acid. The OD is measured twice with 100 μl of solution using a spectrophotometer.
# [3] = test system: GSH; assay: Intracellular GSH in MDMs infected with HIV-1/Ba-L; type: cell-based, human; settings: conditions of stress
# Description: The intracellular GSH was assayed by means of the assay kit sold by Cayman. This method for assaying glutathione is an adaptation of that described by O. W. Griffith et al. (1980).
# The compound I-152 and its derivatives are prepared extemporaneously by being dissolved in dimethyl sulfoxide (DMSO) at the concentration of 100 mM. They are subsequently stored at −20° C. after having been diluted 10 fold in phosphate buffer (PBS).
# [4] = test system: HIV-1 LAI; assay: Antiviral activity in quiescent or PHA-P activated PBMCs infected with HIV-1 LAI; type: cell-based; settings: quiescent and activated PBMCs, at known cytotoxic doses (so in the source)
# Description: (§1) For some experiments, the PBMCs and the PBLs are activated for 48 h with 1 μg/ml of a mitogen, PHA-P (Difco Laboratories). The PBMCs and the PBLs are cultured in medium A (quiescent) or B (activated). The cells are cultured at 37° C. in an atmosphere saturated with moisture under 5% of CO2. The culture supernatants are removed and the culture media are replaced every three or four days. At each renewal of the culture media, the cell viability is evaluated by coloring with trypan blue or by microscopic observation.
# (§2) The MDMs were infected with the reference isolate with macrophage tropism, HIV-1/Ba-L. The PBMCs and the PBLs were infected with the reference isolate with lymphocyte tropism HIV-1 LAI. The viral stock were formed by amplifying these strains in vitro using umbilical blood mononucleated cells (UBM(s) preactivated with 1 μg/ml of PHA-P and cultured in medium A supplemented by 20 IU/ml of IL-2. In order to remove the soluble factors, such as cytokines, the culture supernatants were ultracentrifuged at 360 000 g for 5 min, and the pellets were resuspended in RPMI 1640. The viral stocks thus formed were subsequently titred using PBMCs activated with PHA-P. The TCID50s (50% Tissue Culture Infectious Dose) were calculated using the Kärber formula.
# (§3) A million MDMs were infected with 10 000 TCID50s of the HIV-1/Ba-L strain. This amount of virus corresponds to a multiplicity of infection (m.o.i.) equal to 0.01. The excess of virus is removed 24 h after by washing with cells using RPMI 1640. The PBLs and the PBMCs were infected with 10 000 TCID50s of the HIV-1 LAI strain (moi=0.01). The cells were washed at the end of the second day of infection.
# (§4) The viral replication is measured by assaying the RT activity in the culture supernatants according to the technique described by F. Rey et al. (Biochem. Biophys. Res. Comm., 1984, 121, 126-133). The radioactivity incorporated during the extension of the complementary strand of a poly-rA synthetic matrix in the presence of an oligo-dT12-18 primer and of a radiolabeled substrate, [^3H-methyl]thymidine-5′-triphosphate ([^3H]TPP), makes it possible to assay the enzymatic activity of RT. 400 μl of supernatant are ultracentrifuged at 360 000 g for 5 min. The RT is released by lysis of the viral pellet in 20 μl of NTE-Triton (100 mM NaCl, 10 mM Tris, 1 mM EDTA, 0.1% Triton X-100). These 20 μl are subsequently incubated with 40 μl of the following reaction mixture: 62.5 mM Tris, pH 7.8; 25 mM KCl; 6.25 mM MgCl2; 1.25 mM dithiothreitol (DTT); 2.5×10^−3 ODU oligo-dT12-18 and poly-rA, 5.55×10^−3 TBq {^3H]TTP. After one hour at 37° C., the enzymatic reaction is halted and the newly synthesized strands are precipitated for 20 min at 4° C. by the addition of 1 ml of sodium pyrophosphate (NaPP), of 50 μl of yeast DNA (0.1 mg/ml in 5% trichluoroacetic acid (TCA)), and of 4 ml of 20% TCA. The mixture is filtered using a cellulose acetate membrane (Millipore) which retains the radiolabeled poly-dT chains. The filter is washed using 20 ml of 5% TCA and the residual water is removed by addition of 25 μl of 70% ethanol. The filter is dried in an oven for 10 minutes at 80° C. and is then introduced into vials containing 8 ml of liquid scintillant. The β radioactivity is quantified by means of a scintillation counter (Packard Bell). The results are expressed in pM of [^3H]-TMP incorporated/h/ml of supernatant or, more simply, in cpm/h/ml.
# The PBMCs, quiescent or activated by PHA-P, were infected by the reference strain with lymphocyte tropism HIV-1 LAI. All the culturings were carried out in parallel and the drugs were maintained throughout the culturing.
# [5] = test system: HIV-1 LAI; assay: Antiviral activity in quiescent or PHA-P activated PBLs infected with HIV-1 LAI; type: cell-based; settings: quiescent PBLs or PBLs activated by PHA-P
# Description: as §1, §2
# A million MDMs were infected with 10 000 TCID50s of the HIV-1/Ba-L strain. This amount of virus corresponds to a multiplicity of infection (m.o.i.) equal to 0.01. The excess of virus is removed 24 h after by washing with cells using RPMI 1640. […]
# The viral replication is measured by assaying the RT activity in the culture supernatants according to the technique described by F. Rey et al. (Biochem. Biophys. Res. Comm., 1984, 121, 126-133). The radioactivity incorporated during the extension of the complementary strand of a poly-rA synthetic matrix in the presence of an oligo-dT12-18 primer and of a radiolabeled substrate, [^3H-methyl]thymidine-5′-triphosphate ([^3H]TPP), makes it possible to assay the enzymatic activity of RT. […] The β radioactivity is quantified by means of a scintillation counter (Packard Bell). […]
# [6] = test system: total glutathione (GSH+GSSG); assay: Total intracellular glutathione in quiescent PBMCs; type: cell-based, human; settings: quiescent PBMCs; for effect on intracellular level of glutathione (in words): 24 h treatment
# [7] = molecular target: T1, RT of the HIV-1 LAI isolate (Human immunodeficiency virus type 1 group M subtype B, UniProt P03367); assay: Acellular test of the enzymatic activity of RT; type: biochemical; settings: for decrease of RT activity: 500 μM
# T1 construct: The RT is released by lysis of the viral pellet in 20 μl of NTE-Triton; endogenous in cells; host or cells: Virions pelleted by ultracentrifugation from supernatants of infected cell cultures
# Description: as §4
# The I-152 molecule is composed of NAC and MEA, which are capable of inhibiting the activity of RT (A. Bergamini et al., J. Clin. Invest., 1994, 93, 2251-2257). For this reason, the inhibiting capacity of I-152 with respect to the RT activity was measured using an acellular test. This test was carried out according to the protocol described above (§ 3.3.3.1.). In the reaction mixture, only the 20 μl of water are replaced by 20 μl of a concentration of I-152 or of the reference compounds. Heparin, known for inhibiting the activity of RT and of the other DNA polymerases, is used as positive control for inhibition.
# [8] = test system: HIV-1/Ba-L; assay: Antiviral activity in MDM cultures infected with HIV-1/Ba-L (RT activity in culture supernatants); type: cell-based; settings: for EC50: Human immunodeficiency virus 1, BAL, MDMs infected with 10 000 TCID50s HIV-1/Ba-L (m.o.i. 0.01), read-out: inhibiting concentration (50% effective dose); for antiviral activity (in words): second series, compounds dissolved in DMSO then diluted, MDMs, HIV-1/Ba-L
# Description: A million monocytes in 1 ml of culture medium A are distributed in each well of a 48 well plate (Becton-Dickinson). The monocytes are left to differentiate into macrophages for 7 days. The macrophages thus differentiated are maintained in culture in medium A.
# as §2, §3, §4
# The 50% effective doses (ED50) are calculated from the cumulative RT activities using the software “Dose-effects analysis with microcomputers” developed by J. Chou & T. C. Chou.
# [9] = test system: PBMCs; settings: PBMC cultures
# [10] = test system: PBLs; settings: PBL cultures
compound,measurement,setting,value
"Cc1cn([C@H]2C[C@H](N=[N+]=[N-])[C@@H](CO)O2)c(=O)[nH]c1=O [AZT, 3′-azido-3′-deoxythymidine, reference compound]",inhibition of integration of the provirus (in words),[1],perfect
"CC(=O)N[C@@H](CSC(C)=O)C(=O)NCCSC(C)=O [I-176, N-(N,S-bisacetyl-L-cysteinyl)-S-acetylcysteamine]",cytotoxicity (in words),"[2]; FIG. 12, at the dose tested",cytotoxic
same,toxicity (in words),"[2]; MDMs, 150 μM, second series in DMSO",slightly toxic
"CC(=O)N[C@@H](CS)C(=O)O [NAC, N-Acetyl-L-cysteine]",regeneration of GSH under conditions of stress (in words),[3],ineffective
same,inhibition of viral replication (in words),[4],do not inhibit viral replication
same,antiviral activity (in words),[5],do not have or have a very slight antiviral activity
same,effect on intracellular level of glutathione (in words),[6],better at increasing the intracellular level of glutathione
same,intracellular concentration of total glutathione,[6]; dose 15 mM,~2.64 ± 0.13 µM
same,inhibiting activity with respect to RT (in words),[7]; acellular system,do not exhibit an inhibiting activity
same,EC50,[8],9.4 mM
same,cytotoxicity,"[2]; MDMs, 15 mM",70%
same,cytotoxicity,"[2]; MDMs, 40 mM",91%
same,cytotoxicity at antiviral doses (in words),[2]; MDMs,cytotoxic
"CC(=O)N[C@@H](CSC(=O)C(C)C)C(=O)NCCSC(C)=O [I-177, N-(N-acetyl-S-isobutyryl-L-cysteinyl)-S-acetylcysteamine]",antiviral activity (in words),[8],activities similar to that of I-152
"CC(=O)N[C@@H](CSC(=O)C(C)(C)C)C(=O)NCCSC(C)=O [I-178, N-(N-acetyl-S-pivaloyl-L-cysteinyl)-S-acetylcysteamine]",antiviral activity (in words),[8],activities similar to that of I-152
heparin,inhibition of RT activity (in words),"[7]; 1 mg/ml, acellular",completely inhibits
"NCCS [MEA, cysteamine, reference compound]",regeneration of GSH under conditions of stress (in words),[3],ineffective
same,dose from which cytotoxic,[9],500 µM
same,inhibition of viral replication (in words),[4],do not inhibit viral replication
same,dose from which cytotoxic,[10],500 µM
same,antiviral activity (in words),[5],do not have or have a very slight antiviral activity
same,intracellular glutathione at high concentration (in words),[6]; 500 μM,decrease
same,effect on intracellular level of glutathione (in words),[6],does not significantly alter the intracellular level of glutathione
same,decrease of RT activity,[7]; exp. 1,29±1%
same,decrease of RT activity,[7]; exp. 2,48±4%
same,EC50,[8],0.3 mM
same,decrease of the viability of MDMs,"[2]; MDMs, 500 μM",65%
same,cytotoxicity at antiviral doses (in words),[2]; MDMs,cytotoxic
